Molecules are shown by their SMILES.

Consider 100 compounds from ChEMBL document CHEMBL3507680, “University of Dundee, Gates Library screen for HepG2 cell viability”.

This series can be described thus: Human HepG2 cell viability assay in 384 well format. Also on record: dose 125 nL, time 70.5 hour; cytotoxicity at 70.5 h: concentration not given beside the values. The following applies: HepG2 cells, read-out: Inhibition. Type of series: toxicity, cell-based.
For `O=c1ccc(-n2cccn2)nn1CCNS(=O)(=O)c1ccc(F)c(Cl)c1`, the cytotoxicity at 70.5 h stood at 2.64%.
As for `O=c1ccc(-n2ccnc2)nn1CCNS(=O)(=O)c1ccc(Cl)s1`, the figure is 3.04%; as for `O=c1ccc(-n2ccnc2)nn1CCNS(=O)(=O)c1ccccc1Cl`, -1.86%.
To `COc1ccc(-n2nnc(C(=O)NCC3CCCCC3)n2)cc1` belongs -12.2%.
To `NC(=O)c1nnn(-c2ccc(Cl)cc2)n1` belongs -5.31%; to `O=C(c1nnn(-c2ccc(C(F)(F)F)cc2)n1)N1CC(O)C1`, -8.07%.
For `CN(C)C(=O)c1nnn(-c2ccc(Br)cc2)n1`, the cytotoxicity at 70.5 h was determined as 28.4%.
For `Cc1nccn1-c1ccc(C(=O)NCC(F)(F)F)nn1`, the cytotoxicity at 70.5 h is -1.99%.
Consider `COc1ccccc1C(O)Cn1cc(C(=O)NCc2ccco2)nn1` (stereo not given), for which the cytotoxicity at 70.5 h was found to be 0.751%.
To `CC(C)NC(=O)NCCn1nc(C(F)(F)F)n(C)c1=O` belongs -4.05%; to `Cc1ccccc1NC(=O)NCCn1nc(C(F)(F)F)n(C)c1=O`, -2.02%; to `O=C(CN1CCC(c2nnc(C(F)(F)F)o2)CC1)Nc1cccnc1`, -3.9%.
As for `O=C(CN1CCC(c2nnc(C(F)(F)F)o2)CC1)NCc1ccccc1`, the figure is -0.907%; as for `O=C(c1nnn(-c2ccccc2F)c1-c1ccccn1)N1CCSCC1`, -0.794%.
To `COC(=O)N1CCc2ccccc2C1C(=O)NCC(F)(F)F` (stereo not given) belongs -5.95%; to `O=C(NC1CCN(c2ccc(-c3ccccc3F)nn2)C1)c1ccc[nH]1` (stereo not given), 10.6%.
Regarding `O=C(NC1CCN(c2ccc(-c3ccccc3F)nn2)C1)C1CCC1` (stereo not given), the cytotoxicity at 70.5 h stood at 1.72%.
For the compound `Cc1noc(-c2ccc(N3CCCC(C(N)=O)C3)nc2)n1` (stereo not given), the cytotoxicity at 70.5 h is -0.883%.
To `CN1CCN(c2cc(NC(=O)Cn3ccc4ccccc43)ncn2)CC1` belongs 1.47%; to `O=C(Nc1cc(N2CCOCC2)ncn1)c1cnccn1`, -3.66%.
To `CCOc1ccc(NC(=O)Nc2cc(N3CCCCC3)ncn2)cc1` belongs -1.28%.
To `O=C(Cc1c(F)cccc1Cl)Nc1cc(N2CCCC2)ncn1` belongs -2.78%.
Regarding `COc1ncccc1C(=O)NCCn1cnc(C)cc1=O`, the cytotoxicity at 70.5 h was -2.32%.
To `COc1ccc(S(=O)(=O)NCCn2cnc(C)cc2=O)cc1C` belongs -9.08%.
As for `O=C(NCCn1cnc(C2CCCC2)cc1=O)c1ccc(=O)[nH]n1`, the figure is -0.636%; as for `CC(C)NC(=O)NCCn1cnc(C2CCCC2)cc1=O`, -6.52%; as for `Cc1ccc(NC(=O)NCCn2cnc(C)c(C)c2=O)cc1F`, -1.25%.
Consider `Cc1ncn(CCNC(=O)Nc2ccc(OC(F)(F)F)cc2)c(=O)c1C`, for which the cytotoxicity at 70.5 h is -3.32%.
As for `Cn1nc(N2CCCC(C(=O)Nc3nc4ccccc4[nH]3)C2)ccc1=O` (stereo not given), the figure is -10%; as for `COc1cc(NC(=O)C2CC(=O)N(c3cccc(F)c3)C2)ncn1` (stereo not given), -3.43%.
To `COc1cccc2sc(N3CC(OC(C)=O)C3)nc12` belongs -11.2%; to `COC(=O)c1ccc(S(=O)(=O)NCC(O)c2sccc2C)cc1` (stereo not given), -2.62%.
To `COCC(C)(O)CNC(=O)c1cc(-c2ccc(F)cc2)nn1C` (stereo not given) belongs 1.82%.
For `COC(=O)c1ccc(S(=O)(=O)NCC(C)(O)c2cccs2)cc1` (stereo not given), the cytotoxicity at 70.5 h was -9.34%.
To `O=C1CCSCC(C(=O)N2CCC(O)CC2)N1` (stereo not given) belongs -10.8%; to `O=C1CCSCC(C(=O)N2CCC3(CC2)OCCO3)N1` (stereo not given), -14.2%.
Consider `Cc1csc(NC(=O)C2CSCCC(=O)N2)n1` (stereo not given), for which the cytotoxicity at 70.5 h is -0.709%.
To `CNC(=O)Cc1csc(NC(=O)C2CSCCC(=O)N2)n1` (stereo not given) belongs 14.7%; to `Cn1nnc2c(N3CC(C(=O)NCc4ccccc4F)C3)ncnc21`, -8.25%; to `CCCc1nnsc1C(=O)NCC(O)c1ccoc1` (stereo not given), -11.2%.
To `O=C(NCC(O)c1ccoc1)Nc1cccs1` (stereo not given) belongs -6.41%.
As for `O=C(NCC(O)c1ccoc1)Nc1c(F)cccc1F` (stereo not given), the figure is -9.03%.
`CCOc1ccccc1C(=O)NCCc1ccoc1`: the cytotoxicity at 70.5 h is -13.5%.
To `COC(=O)c1sccc1S(=O)(=O)NCCc1ccoc1` belongs -5.25%; to `O=C(c1ccc2[nH]cnc2c1)N1CCC(Oc2ccccn2)CC1`, 1.58%; to `CN1CCCC(C(=O)N2CCC(Oc3ccccn3)CC2)C1` (stereo not given), -7.47%.
To `Cc1noc(C)c1S(=O)(=O)N1CCC(Oc2ccccn2)CC1` belongs 10%.
As for `CCOC(=O)N1CCC(Oc2ccc(C(F)(F)F)cn2)CC1`, the figure is -7.88%; as for `O=C(Cn1cccn1)N1CCC(Oc2ccc(C(F)(F)F)cn2)CC1`, -0.904%.
As to `CN(CC(=O)N1CCC(Oc2ccc(C(F)(F)F)cn2)CC1)S(C)(=O)=O`, the cytotoxicity at 70.5 h came to 0.51%.
As for `O=C(CCn1ccc(=O)[nH]c1=O)N1CCC(Oc2ncccc2Cl)CC1`, the figure is -6.14%; as for `O=C(NCc1ccccc1)N1CCC(Oc2ncccc2Cl)CC1`, 11%; as for `O=S(=O)(c1cc(F)cc(F)c1)N1CCC(Oc2ccc(Cl)cn2)CC1`, 2%.
To `N#Cc1cccnc1OC1CCN(C(=O)NCc2ccccc2)CC1` belongs -4.78%.
On to `N#Cc1cccnc1OC1CCN(S(=O)(=O)c2c(F)cccc2F)CC1`, for which the cytotoxicity at 70.5 h was 39.9%.
As for `N#Cc1ccc(OC2CCN(C(=O)c3ccccc3Cl)CC2)nc1`, the figure is -5.83%; as for `CN1CCCC(C(=O)N2CCC(Oc3ncccn3)CC2)C1` (stereo not given), -4.47%.
For `Cc1noc(C)c1S(=O)(=O)N1CCC(Oc2cccnn2)CC1`, the cytotoxicity at 70.5 h is -0.269%.
As for `O=C(c1cc(C2CC2)on1)N1CCC(Oc2ncccc2Br)CC1`, the figure is -13.4%; as for `CC(=O)Nc1cnc(Oc2ccccc2F)nc1`, -5.65%; as for `O=C(c1ccccn1)N1CCN(c2ccc(-n3cccc3)nn2)CC1`, -4.16%.
As for `COCC(=O)N1CCN(c2cc(-n3cccc3)nc(C)n2)CC1`, the figure is 5.98%; as for `Cc1nc(N2CCN(C(=O)c3cccs3)CC2)cc(-n2cccc2)n1`, 1.27%; as for `Cc1nc(N2CCN(C(=O)c3cccnc3)CC2)cc(-n2cccc2)n1`, 4.9%.
To `Cc1cncc(C(=O)N2CCCC3(CCCN3S(C)(=O)=O)C2)c1` (stereo not given) belongs -8.81%; to `O=C(c1ccco1)N1CCC2(CC1)C(=O)Nc1ccccc12`, -9.22%.
`O=C1CC2(CCN(Cc3cccs3)C2)CN1c1cccc(F)c1` (stereo not given): the cytotoxicity at 70.5 h is -11%.
To `CS(=O)(=O)N1CCCC12CCCN(C(=O)c1ccc3[nH]ccc3c1)C2` (stereo not given) belongs -10.6%; to `CN(C)CC(=O)N1CCC2(CC1)COCCN(c1ncccn1)C2`, 22.5%; to `Cc1ccc2c(n1)N(CCn1cccn1)CCN(C(=O)NC(C)C)C2`, 21.7%.
As for `Cc1cnc(C(=O)N2CCc3ncnc(-c4cnn(C)c4)c3CC2)cn1`, the figure is 0.39%; as for `CC(C)Cn1cc(NC(=O)N2CCCC2)cn1`, 0.273%; as for `CCc1n[nH]c(C2CN(C(=O)CCc3cscn3)CCO2)n1` (stereo not given), 1.24%.
In the case of `CCc1ocnc1C(=O)N1CCCC(n2nc(C)nc2C)C1` (stereo not given), the cytotoxicity at 70.5 h came out at 5.06%.
To `CC(C)c1n[nH]c(C2CN(C(=O)CCc3cscn3)CCO2)n1` (stereo not given) belongs 13.2%; to `Cc1cc(C(=O)NCc2ccc(N3CCN(C)CC3)nc2)c(C)s1`, -12.2%; to `CCn1ccnc1CN1CCCN(C(=O)c2cc(C)nn2CC)CC1`, 3.88%.
As for `CCc1noc(C)c1C(=O)N1CCCC(n2nc(C)nc2C)C1` (stereo not given), the figure is -2.69%; as for `Cc1cc(C)n(CC2CCCCN2CCc2ccncc2)n1` (stereo not given), 4.66%.
To `Cc1ccc(NC2CCN(C(=O)c3cncnc3C)CC2)nn1` belongs 14.7%.
As to `COc1cccc(CNCc2c(C(C)C)nn(C)c2N(C)C)c1`, the cytotoxicity at 70.5 h worked out at 1.8%.
To `COc1cc(CNCCc2cnn(C)c2)cc2c1OCO2` belongs -8.59%.
Consider `Cc1cc(C)c(CNC(=O)NCCC2CCCO2)c(=O)[nH]1` (stereo not given), for which the cytotoxicity at 70.5 h was -2.77%.
As for `O=C(NCc1cccnc1)Nc1cc(C(F)(F)F)c[nH]c1=O`, the figure is -9.57%.
As for `COc1ccc(OC)c(CNCc2c(C(C)C)nn(C)c2N(C)C)c1`, the figure is -3.06%; as for `Cc1cc(CN2CCOC(Cn3nc(C)cc3C)C2)on1` (stereo not given), -5.48%.
On to `O=C(c1cccnc1N1CCOCC1)N1CCCC(n2cccn2)C1` (stereo not given), for which the cytotoxicity at 70.5 h was -5.6%.
As for `Cc1nnc2n1CCN(C(=O)c1cc(Br)c[nH]1)C2`, the figure is -5.46%; as for `Cc1csc(NC(=O)CN2CCCC(Cn3nc(C)nc3C)C2)n1` (stereo not given), -7.51%; as for `Cc1cc(C)c(CNC(=O)CC2CCCO2)c(=O)[nH]1` (stereo not given), -3.05%.
As for `Cc1ccc(NC2CCN(C(=O)c3ccoc3C)CC2)nn1`, the figure is -0.801%; as for `Cc1noc(C)c1C(=O)N1CCC(Nc2cccnn2)CC1`, 0.523%; as for `CC(C)(C)c1cccc(OCC(=O)NS(=O)(=O)c2cccnc2)c1`, 21.7%.
Turning to `COc1ccc(OCCNCc2c(C)nn(C)c2N(C)C)cc1`, the cytotoxicity at 70.5 h turned out to be 31.1%.
Take `O=C(c1ccccn1)N1CCC2(CC1)C(=O)Nc1ccccc12`: the cytotoxicity at 70.5 h is -9.49%.
To `O=C(CC1CC1)N1CC[C@H]2OCC[C@@]2(COc2ncccc2F)C1` belongs -21.5%.
`O=C1CCCN1Cc1ncn2c1CN(C(=O)N1CCCC1)CCC2`: the cytotoxicity at 70.5 h came out at 0.134%.
As for `CCS(=O)(=O)N1Cc2ncn(CC3CC3)c2C(COCC2CC2)C1` (stereo not given), the figure is 1.64%; as for `CCS(=O)(=O)N1CCN(CCn2cccn2)c2nc(C)ccc2C1`, -2.39%.
As for `O=C(NCC1CCOCC1)[C@@H]1CC[C@@H]2[C@@H](CCN2Cc2ccncc2)O1`, the figure is -0.695%.
